What was measured:
[1] = target: T1, serotonin transporter (SERT) (Homo sapiens, UniProt P31645); experiment: Fluorescent substrate uptake inhibition, SERT; type: cell-based; conditions: for inhibition at 10 µM: HEK293 cells expressing SERT
T1 construct: expressed in transfected cells; host or cells: HEK293

[2] = HLM stability (High Activity); type: in vitro ADME; conditions: both sexes, human, liver microsomes, pH 7.4, Condition 2 (High Activity), 1.0 mg protein/mL
Summary of the method: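 Pooled male and female human liver microsomes, 1.0 mg protein/mL, in 100 mM PBS pH 7.4 with NADPH-regenerating system; compound 1 μM at 37° C, five time points over 60 min. Parent remaining by LC-MS/MS; kel, t1/2 and Clint from linear regression of ln(AUC) versus time.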

[3] = MLM stability (High Activity); type: in vitro ADME, BALB/c mice; conditions: male, BALB/c, mouse, liver microsomes, pH 7.4, Condition 2 (High Activity), 1.0 mg protein/mL
Experimental: MLM Stability (High Activity). Pooled MLM from male BALB/c mice (XenoTech M3000) were used. Microsomal incubations were carried out in 96-well plates in 5 aliquots of 40 μL each (one for each time point). Liver microsomal incubation medium consisted of PBS (100 mM, pH 7.4), MgCl2 (3.3 mM), NADPH (3 mM), glucose-6-phosphate (5.3 mM), and glucose-6-phosphate dehydrogenase (0.67 units/mL), with 1.0 mg of liver microsomal protein per mL. Control incubations were performed by replacing the NADPH-cofactor system with PBS. Test compounds (1 μM, final solvent concentration 1.6%) were incubated with microsomes at 37° C., shaking at 100 rpm. Incubations were performed in duplicate. Five time points over 60 minutes were analyzed. The reactions were stopped by adding 9 volumes of 90% acetonitrile-water to incubation aliquots, followed by protein sedimentation by centrifugation at 5500 rpm for 3 minutes. Supernatants were analyzed for parent compound remaining using a fit-for-purpose liquid chromatography-tandem mass spectrometry (LC-MS/MS) method, with authentic samples of each analyte used for identity confirmation.
Data Analysis. The elimination constant (kel), half-life (t1/2) and intrinsic clearance (Clint) were determined in a plot of […] versus time, using linear regression analysis.

[4] = target: T2, dopamine transporter (DAT) (Homo sapiens, UniProt Q01959); experiment: Fluorescent substrate uptake inhibition, DAT; type: cell-based; conditions: for inhibition at 10 µM: CHO cells expressing DAT; for inhibitory activity at DAT: in words
T2 construct: expressed in transfected cells; host or cells: CHO (uptake)
T2 sequence (Q01959 whole entry, species assumed): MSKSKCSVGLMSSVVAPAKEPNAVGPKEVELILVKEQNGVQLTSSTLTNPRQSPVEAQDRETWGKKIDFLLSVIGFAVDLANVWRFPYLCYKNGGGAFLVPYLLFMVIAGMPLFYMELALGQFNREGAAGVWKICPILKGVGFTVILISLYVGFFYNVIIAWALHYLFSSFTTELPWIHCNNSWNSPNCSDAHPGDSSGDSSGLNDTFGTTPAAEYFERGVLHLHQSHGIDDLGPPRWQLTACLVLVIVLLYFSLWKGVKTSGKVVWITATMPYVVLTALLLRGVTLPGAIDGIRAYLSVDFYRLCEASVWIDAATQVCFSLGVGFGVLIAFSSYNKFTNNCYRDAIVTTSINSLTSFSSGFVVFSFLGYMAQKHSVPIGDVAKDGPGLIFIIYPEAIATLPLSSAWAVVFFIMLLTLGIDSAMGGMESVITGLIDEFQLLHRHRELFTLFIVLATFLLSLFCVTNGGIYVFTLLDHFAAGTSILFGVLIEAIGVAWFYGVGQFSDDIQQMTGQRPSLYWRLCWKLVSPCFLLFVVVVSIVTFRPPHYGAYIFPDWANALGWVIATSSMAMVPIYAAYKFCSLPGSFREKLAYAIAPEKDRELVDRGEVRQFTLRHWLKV

SERT = target: T3, SERT (Homo sapiens, UniProt P31645); experiment: SERT radioligand binding with [3H]imipramine
T3 construct: expressed in transfected cells; host or cells: HEK293
T3 sequence (P31645 whole entry, species assumed): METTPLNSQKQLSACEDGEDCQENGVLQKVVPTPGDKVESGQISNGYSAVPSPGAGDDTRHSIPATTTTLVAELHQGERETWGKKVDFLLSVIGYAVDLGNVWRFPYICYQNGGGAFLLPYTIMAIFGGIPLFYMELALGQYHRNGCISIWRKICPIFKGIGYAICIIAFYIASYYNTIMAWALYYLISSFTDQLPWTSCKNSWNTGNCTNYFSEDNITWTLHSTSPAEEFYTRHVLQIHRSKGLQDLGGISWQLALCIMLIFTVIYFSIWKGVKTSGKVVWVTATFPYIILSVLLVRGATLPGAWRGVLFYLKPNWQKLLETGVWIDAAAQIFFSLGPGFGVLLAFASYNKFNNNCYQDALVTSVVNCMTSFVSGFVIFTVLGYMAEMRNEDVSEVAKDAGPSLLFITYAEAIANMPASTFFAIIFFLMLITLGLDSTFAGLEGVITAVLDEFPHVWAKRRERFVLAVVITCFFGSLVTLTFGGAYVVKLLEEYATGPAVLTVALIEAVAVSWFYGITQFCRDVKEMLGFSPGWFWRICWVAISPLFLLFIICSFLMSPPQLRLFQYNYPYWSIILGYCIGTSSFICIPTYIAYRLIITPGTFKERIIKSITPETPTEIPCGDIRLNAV
Experimental: (§1) Radioligand Binding. Affinity of the test compounds for SERT, NET, and DAT was determined in radioligand binding experiments with [^3H]imipramine, [^3]nisoxetine, and [^3H]WIN35,428, respectively, by WuXi AppTec (Hong Kong) Limited, under the conditions described in Table 15.

[5] = target: T4, vesicular monoamine transporter 2 (VMAT2) (Homo sapiens, UniProt Q05940); experiment: Fluorescent substrate uptake inhibition, VMAT2; type: cell-based; conditions: 10 μM, transfected cells
T4 construct: expressed in transfected cells
T4 sequence (Q05940 whole entry, species assumed): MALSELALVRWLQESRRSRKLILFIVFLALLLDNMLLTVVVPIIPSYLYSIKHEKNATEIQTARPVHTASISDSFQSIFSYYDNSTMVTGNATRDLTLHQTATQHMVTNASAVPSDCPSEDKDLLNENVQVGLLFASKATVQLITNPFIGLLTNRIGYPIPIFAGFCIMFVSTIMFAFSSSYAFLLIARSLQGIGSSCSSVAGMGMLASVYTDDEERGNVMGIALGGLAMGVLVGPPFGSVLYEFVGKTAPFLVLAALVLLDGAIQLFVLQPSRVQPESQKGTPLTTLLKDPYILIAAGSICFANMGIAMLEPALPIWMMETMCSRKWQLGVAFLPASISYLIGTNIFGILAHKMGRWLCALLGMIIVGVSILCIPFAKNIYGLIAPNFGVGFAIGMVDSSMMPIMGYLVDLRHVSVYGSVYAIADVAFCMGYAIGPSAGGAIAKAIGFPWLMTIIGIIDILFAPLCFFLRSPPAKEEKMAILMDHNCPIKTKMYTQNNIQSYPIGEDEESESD

[6] = target: T5, norepinephrine transporter (NET) (Homo sapiens, UniProt P23975); experiment: Fluorescent substrate uptake inhibition, NET; type: cell-based; conditions: for inhibition at 10 µM: HEK293 cells expressing NET
T5 construct: expressed in transfected cells; host or cells: HEK293
T5 sequence (P23975 whole entry, species assumed): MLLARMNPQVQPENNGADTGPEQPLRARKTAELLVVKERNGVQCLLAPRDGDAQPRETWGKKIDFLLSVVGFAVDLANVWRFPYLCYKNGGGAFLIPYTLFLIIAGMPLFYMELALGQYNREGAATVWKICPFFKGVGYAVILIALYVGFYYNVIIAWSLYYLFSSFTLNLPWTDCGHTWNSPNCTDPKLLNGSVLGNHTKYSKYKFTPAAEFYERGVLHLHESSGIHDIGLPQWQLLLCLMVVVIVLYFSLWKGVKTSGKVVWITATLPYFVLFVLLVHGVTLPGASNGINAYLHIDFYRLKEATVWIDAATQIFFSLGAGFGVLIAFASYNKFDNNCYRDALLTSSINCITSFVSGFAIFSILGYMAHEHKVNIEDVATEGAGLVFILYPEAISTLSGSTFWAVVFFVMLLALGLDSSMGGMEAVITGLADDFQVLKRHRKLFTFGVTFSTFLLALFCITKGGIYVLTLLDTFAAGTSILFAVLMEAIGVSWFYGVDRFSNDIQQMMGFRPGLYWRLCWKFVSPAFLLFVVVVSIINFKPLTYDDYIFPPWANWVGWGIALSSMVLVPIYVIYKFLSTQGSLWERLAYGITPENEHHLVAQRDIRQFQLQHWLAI

NET = target: T6, NET (Homo sapiens, UniProt P23975); experiment: NET radioligand binding with [3H]nisoxetine
T6 construct: expressed in transfected cells; host or cells: HEK293
T6 sequence (P23975 whole entry, species assumed): as above
Experimental: as §1

[7] = target: MK-801 binding site of the N-methyl-D-aspartate receptor (NMDAR); experiment: NMDAR radioligand binding with [3H]MK-801, Method B; design: species or system Sprague Dawley rat; conditions: MK-801 site, Method B, male Sprague Dawley rat cortex, 5.0 nM [3H]MK-801; read-out: NMDAR Ki ± SEM
Experimental: Radioligand Binding—Method B. Affinity of the test compounds for NMDAR was determined in radioligand binding experiments with [^3H]MK-801 by WuXi AppTec (Hong Kong) Limited, under the conditions described in Table 13.

DAT = target: T7, DAT (Homo sapiens, UniProt Q01959); experiment: DAT radioligand binding with [3H]WIN35,428
T7 construct: expressed in transfected cells; host or cells: CHO (uptake)
T7 sequence (Q01959 whole entry, species assumed): as the sequence (Q01959 whole entry, species assumed) above
Experimental: as §1

[8] = MLM stability (Low Activity); type: in vitro ADME, CD-1 mice; conditions: male, CD-1, mouse, liver microsomes, pH 7.4, Condition 1 (Low Activity), 0.50 mg protein/mL
Summary of the method: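 Pooled male CD-1 mouse liver microsomes (0.50 mg/mL) with 1 μM compound and 1 mM NADPH in 100 mM PBS pH 7.4 with 1 mM MgCl2, 37 °C, six time points over 60 min. Parent remaining by LC-MS/MS; kel, t1/2 and Clint from linear regression of ln(AUC) versus time.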

[9] = HLM stability (Low Activity, Alternative Method); type: in vitro ADME; conditions: both sexes, human, liver microsomes, pH 7.4, Condition 1 column, values marked *: Low Activity, 0.50 mg protein/mL
Summary of the method: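 Pooled male and female human liver microsomes (0.50 mg/mL) in 100 mM PBS pH 7.4 with 1 mM MgCl2 and 1 mM NADPH, compound 1 μM (1.0% solvent), 37° C with shaking, six time points over 60 min. Parent remaining measured by LC-MS/MS; kel, t1/2 and Clint from linear regression of ln(AUC) versus time.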

[10] = RLM stability (Low Activity); type: in vitro ADME, Sprague Dawley rats; conditions: male, Sprague Dawley, rat, liver microsomes, pH 7.4, Condition 1 (Low Activity), 0.50 mg protein/mL
Summary of the method: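 Pooled male Sprague Dawley rat liver microsomes (0.50 mg/mL) in PBS pH 7.4 with 1 mM MgCl2 and 1 mM NADPH; compound 1 μM, 1.0% solvent, 37° C. Six time points over 60 min, parent remaining by LC-MS/MS; kel, t1/2 and Clint from linear regression of ln(AUC) versus time.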

T1 sequence (P31645 whole entry, species assumed): as the sequence (P31645 whole entry, species assumed) above

O=C1CCCC[C@]1(c1ccccc1)N1CCCCC1 [Compound 26R, (R)-2-phenyl-2-(piperidin-1-yl)cyclohexan-1-one]
IC50 [1]: > 100 µM | inhibition at 10 µM [1]: 30.4% | half-life at 1 μM [2]: 63.2 min | microsomal CLint at 1 μM [2]: 11 µL/min/mg | half-life at 1 μM [3]: 10.6 min | microsomal CLint at 1 μM [3]: 65 µL/min/mg | IC50 [4]: 5 µM | inhibition at 10 µM [4]: 58% | inhibitory activity at DAT [4]: significant inhibitory activity at DAT | Ki (SERT): 22.5 µM | inhibition at 10 µM [5]: -12.3% | IC50 [6]: 23.7 µM | inhibition at 10 µM [6]: 19.5% | Ki (NET): > 87.4 µM | Ki [7]: 3.7 µM | Ki (DAT): 70.4 µM

O=C1CCCC[C@@]1(c1ccccc1)N1CCCCC1 [Compound 26S, (S)-2-phenyl-2-(piperidin-1-yl)cyclohexan-1-one]
IC50 [1]: 44 µM | inhibition at 10 µM [1]: 43% | half-life at 1 μM [2]: 101 min | microsomal CLint at 1 μM [2]: 7 µL/min/mg | half-life at 1 μM [3]: 12.3 min | microsomal CLint at 1 μM [3]: 56 µL/min/mg | IC50 [4]: 16.4 µM | inhibition at 10 µM [4]: 33.7% | Ki (SERT): 8.2 µM | inhibition at 10 µM [5]: 22.9% | IC50 [6]: 8.9 µM | inhibition at 10 µM [6]: 16.1% | Ki (NET): > 87.4 µM | Ki [7]: 0.52 µM | Ki (DAT): 79.5 µM

CC(C)N[C@]1(c2ccccc2)CCCCC1=O [Compound 28S, (S)-2-(isopropylamino)-2-phenylcyclohexan-1-one]
IC50 [1]: 8.5 µM | inhibition at 10 µM [1]: 22% | IC50 [4]: 1.3 µM | inhibition at 10 µM [4]: 58% | inhibitory activity at DAT [4]: significant inhibitory activity at DAT | Ki (SERT): 12.3 µM | half-life at 1 μM [8]: 14.8 min | microsomal CLint at 1 μM [8]: 94 µL/min/mg | inhibition at 10 µM [5]: -32.7% | IC50 [6]: 4.7 µM | inhibition at 10 µM [6]: 48.7% | Ki (NET): 13.5 µM | Ki [7]: 3 µM | half-life at 1 μM [9]: 76.6 min | microsomal CLint at 1 μM [9]: 18.1 µL/min/mg | Ki (DAT): 6 µM | half-life at 1 μM [10]: 18.9 min | microsomal CLint at 1 μM [10]: 73.4 µL/min/mg

— patent US11344510B2, “Arylcyclohexylamine derivatives and their use in the treatment of psychiatric disorders” (Gilgamesh Pharmaceuticals, Inc., priority 2019, dated 2022)
